What all share (type): functional, organism-based
For data set [1], the target named is T1, ATP-binding cassette sub-family C member 2 (Rattus norvegicus, UniProt Q63120). Put plainly: (§1) TP_TRANSPORTER: Western in vivo, liver of Wistar rat.
Data set [2] addresses T2, Bile salt export pump (Rattus norvegicus, UniProt O70127).
T2 sequence (O70127 whole entry): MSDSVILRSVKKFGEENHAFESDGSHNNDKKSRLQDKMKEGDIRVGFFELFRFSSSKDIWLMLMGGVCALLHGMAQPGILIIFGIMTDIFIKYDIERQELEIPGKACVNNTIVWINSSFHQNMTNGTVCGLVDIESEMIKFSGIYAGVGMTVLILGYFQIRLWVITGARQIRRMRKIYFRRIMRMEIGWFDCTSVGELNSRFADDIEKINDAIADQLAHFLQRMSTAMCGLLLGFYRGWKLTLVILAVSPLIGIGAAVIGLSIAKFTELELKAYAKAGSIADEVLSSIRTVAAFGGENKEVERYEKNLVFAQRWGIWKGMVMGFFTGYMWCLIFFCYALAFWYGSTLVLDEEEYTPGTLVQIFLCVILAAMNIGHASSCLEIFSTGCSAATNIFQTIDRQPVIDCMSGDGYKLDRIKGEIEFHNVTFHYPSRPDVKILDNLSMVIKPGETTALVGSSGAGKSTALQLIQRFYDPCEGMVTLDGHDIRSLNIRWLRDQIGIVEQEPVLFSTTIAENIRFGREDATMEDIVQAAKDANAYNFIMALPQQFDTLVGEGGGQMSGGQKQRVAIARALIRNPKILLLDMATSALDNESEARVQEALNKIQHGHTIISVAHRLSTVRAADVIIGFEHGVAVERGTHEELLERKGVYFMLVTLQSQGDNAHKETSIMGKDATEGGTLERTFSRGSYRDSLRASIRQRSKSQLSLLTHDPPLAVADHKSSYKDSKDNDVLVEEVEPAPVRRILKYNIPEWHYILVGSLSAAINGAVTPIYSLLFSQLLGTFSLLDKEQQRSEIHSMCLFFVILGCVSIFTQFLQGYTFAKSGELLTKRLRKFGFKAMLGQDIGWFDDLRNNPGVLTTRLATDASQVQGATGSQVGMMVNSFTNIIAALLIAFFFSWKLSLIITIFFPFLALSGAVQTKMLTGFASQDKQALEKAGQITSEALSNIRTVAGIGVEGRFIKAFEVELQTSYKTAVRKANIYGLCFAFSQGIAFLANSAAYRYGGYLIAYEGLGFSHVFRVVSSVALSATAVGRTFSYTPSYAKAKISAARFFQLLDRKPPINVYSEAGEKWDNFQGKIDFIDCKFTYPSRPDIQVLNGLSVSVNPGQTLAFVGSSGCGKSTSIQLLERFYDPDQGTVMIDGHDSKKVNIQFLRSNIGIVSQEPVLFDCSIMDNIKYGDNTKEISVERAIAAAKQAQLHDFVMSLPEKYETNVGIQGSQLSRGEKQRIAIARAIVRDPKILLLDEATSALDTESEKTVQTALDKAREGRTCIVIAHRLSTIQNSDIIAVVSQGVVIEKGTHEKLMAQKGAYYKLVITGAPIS
Described as §1.

Data set [3] addresses T3, Multidrug resistance-associated protein 1 (Rattus norvegicus, UniProt Q8CG09). The description is as §1.
For data set [4], the target named is T1, ATP-binding cassette sub-family C member 2. Put plainly: (§2) TP_TRANSPORTER: RT-PCR in vivo, liver of Wistar rat.
In data set [5] the target is ATP-dependent translocase ABCB1 (Rattus norvegicus, UniProt P43245). Described as §2.
Chain of ATP-dependent translocase ABCB1 (P43245 whole entry): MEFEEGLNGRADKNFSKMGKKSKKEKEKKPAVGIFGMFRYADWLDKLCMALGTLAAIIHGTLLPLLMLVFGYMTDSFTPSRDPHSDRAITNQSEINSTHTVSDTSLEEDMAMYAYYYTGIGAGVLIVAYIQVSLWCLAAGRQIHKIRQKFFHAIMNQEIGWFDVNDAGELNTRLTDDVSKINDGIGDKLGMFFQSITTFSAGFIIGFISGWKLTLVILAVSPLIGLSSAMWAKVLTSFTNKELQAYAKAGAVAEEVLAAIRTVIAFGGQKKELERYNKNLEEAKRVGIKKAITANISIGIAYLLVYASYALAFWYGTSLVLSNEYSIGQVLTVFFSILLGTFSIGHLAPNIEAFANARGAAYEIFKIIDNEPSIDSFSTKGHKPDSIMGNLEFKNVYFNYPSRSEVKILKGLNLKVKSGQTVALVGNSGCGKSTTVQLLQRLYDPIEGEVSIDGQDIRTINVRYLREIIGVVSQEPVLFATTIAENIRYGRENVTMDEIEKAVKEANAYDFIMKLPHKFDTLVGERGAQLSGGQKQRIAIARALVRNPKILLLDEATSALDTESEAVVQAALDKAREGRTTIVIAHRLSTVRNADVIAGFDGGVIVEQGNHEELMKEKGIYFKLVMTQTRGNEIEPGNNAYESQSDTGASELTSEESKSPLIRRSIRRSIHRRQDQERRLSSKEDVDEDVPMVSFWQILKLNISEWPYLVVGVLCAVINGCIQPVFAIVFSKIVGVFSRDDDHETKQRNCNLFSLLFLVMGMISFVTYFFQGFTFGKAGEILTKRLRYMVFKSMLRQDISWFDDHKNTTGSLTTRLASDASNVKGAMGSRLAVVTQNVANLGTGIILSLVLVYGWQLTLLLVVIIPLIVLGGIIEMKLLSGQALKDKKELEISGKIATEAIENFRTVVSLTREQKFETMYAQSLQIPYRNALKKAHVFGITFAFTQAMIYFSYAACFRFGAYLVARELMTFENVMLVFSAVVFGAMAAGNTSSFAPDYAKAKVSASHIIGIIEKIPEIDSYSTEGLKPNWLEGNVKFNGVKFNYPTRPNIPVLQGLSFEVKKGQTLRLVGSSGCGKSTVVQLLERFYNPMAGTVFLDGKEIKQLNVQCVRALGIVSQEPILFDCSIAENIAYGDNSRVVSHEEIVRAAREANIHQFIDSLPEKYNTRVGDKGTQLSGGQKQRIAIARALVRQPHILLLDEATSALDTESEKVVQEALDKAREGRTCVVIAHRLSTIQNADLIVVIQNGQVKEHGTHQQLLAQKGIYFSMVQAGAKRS
Data set [6] deals with T2, Bile salt export pump. The description is as §2.
The target of data set [7] is T3, Multidrug resistance-associated protein 1. The data set is described as §2.
Data set [8] deals with Multidrug resistance protein 1a (Rattus norvegicus) (UniProt Q6PSM0). The data set is described as §1.

T3 sequence (Q8CG09 whole entry): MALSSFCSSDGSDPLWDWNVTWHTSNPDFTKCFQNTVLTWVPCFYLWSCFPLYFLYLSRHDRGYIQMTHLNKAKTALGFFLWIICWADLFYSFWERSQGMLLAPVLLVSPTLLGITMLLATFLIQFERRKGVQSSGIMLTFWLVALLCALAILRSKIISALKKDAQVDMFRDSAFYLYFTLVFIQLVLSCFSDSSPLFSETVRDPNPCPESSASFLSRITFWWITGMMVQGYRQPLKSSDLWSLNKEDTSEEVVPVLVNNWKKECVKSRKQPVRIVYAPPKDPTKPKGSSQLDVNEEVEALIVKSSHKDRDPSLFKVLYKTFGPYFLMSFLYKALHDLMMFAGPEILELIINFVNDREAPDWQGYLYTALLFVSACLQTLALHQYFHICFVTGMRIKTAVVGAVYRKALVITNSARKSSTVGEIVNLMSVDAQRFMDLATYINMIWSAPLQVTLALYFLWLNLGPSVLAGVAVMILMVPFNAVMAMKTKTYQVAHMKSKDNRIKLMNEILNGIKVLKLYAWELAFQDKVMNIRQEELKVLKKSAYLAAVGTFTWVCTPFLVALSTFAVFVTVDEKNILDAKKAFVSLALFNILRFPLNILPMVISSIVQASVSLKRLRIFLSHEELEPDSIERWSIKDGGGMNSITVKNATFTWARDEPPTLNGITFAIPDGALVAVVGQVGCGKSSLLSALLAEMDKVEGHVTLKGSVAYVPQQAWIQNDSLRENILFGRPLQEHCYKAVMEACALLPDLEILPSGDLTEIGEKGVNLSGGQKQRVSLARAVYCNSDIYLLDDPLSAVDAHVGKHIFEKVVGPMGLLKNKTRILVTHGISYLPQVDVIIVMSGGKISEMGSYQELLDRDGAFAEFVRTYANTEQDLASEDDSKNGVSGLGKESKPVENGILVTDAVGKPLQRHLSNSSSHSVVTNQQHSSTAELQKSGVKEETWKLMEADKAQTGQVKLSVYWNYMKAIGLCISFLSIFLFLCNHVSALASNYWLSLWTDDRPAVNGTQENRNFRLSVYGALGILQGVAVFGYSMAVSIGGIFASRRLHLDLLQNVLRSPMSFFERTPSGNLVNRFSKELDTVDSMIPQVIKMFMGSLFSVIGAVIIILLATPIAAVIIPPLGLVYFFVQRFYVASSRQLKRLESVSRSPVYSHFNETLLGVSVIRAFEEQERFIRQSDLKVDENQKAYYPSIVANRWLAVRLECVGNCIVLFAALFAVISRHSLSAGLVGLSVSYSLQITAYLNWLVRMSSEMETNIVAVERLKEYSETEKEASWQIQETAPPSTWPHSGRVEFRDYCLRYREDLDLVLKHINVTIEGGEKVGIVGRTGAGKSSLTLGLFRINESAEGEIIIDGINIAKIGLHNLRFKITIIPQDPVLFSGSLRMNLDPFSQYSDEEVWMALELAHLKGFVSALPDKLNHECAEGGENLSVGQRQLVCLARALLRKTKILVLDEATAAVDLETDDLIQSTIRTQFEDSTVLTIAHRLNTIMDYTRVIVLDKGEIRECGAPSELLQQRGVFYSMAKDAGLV
T1 sequence (Q63120 whole entry): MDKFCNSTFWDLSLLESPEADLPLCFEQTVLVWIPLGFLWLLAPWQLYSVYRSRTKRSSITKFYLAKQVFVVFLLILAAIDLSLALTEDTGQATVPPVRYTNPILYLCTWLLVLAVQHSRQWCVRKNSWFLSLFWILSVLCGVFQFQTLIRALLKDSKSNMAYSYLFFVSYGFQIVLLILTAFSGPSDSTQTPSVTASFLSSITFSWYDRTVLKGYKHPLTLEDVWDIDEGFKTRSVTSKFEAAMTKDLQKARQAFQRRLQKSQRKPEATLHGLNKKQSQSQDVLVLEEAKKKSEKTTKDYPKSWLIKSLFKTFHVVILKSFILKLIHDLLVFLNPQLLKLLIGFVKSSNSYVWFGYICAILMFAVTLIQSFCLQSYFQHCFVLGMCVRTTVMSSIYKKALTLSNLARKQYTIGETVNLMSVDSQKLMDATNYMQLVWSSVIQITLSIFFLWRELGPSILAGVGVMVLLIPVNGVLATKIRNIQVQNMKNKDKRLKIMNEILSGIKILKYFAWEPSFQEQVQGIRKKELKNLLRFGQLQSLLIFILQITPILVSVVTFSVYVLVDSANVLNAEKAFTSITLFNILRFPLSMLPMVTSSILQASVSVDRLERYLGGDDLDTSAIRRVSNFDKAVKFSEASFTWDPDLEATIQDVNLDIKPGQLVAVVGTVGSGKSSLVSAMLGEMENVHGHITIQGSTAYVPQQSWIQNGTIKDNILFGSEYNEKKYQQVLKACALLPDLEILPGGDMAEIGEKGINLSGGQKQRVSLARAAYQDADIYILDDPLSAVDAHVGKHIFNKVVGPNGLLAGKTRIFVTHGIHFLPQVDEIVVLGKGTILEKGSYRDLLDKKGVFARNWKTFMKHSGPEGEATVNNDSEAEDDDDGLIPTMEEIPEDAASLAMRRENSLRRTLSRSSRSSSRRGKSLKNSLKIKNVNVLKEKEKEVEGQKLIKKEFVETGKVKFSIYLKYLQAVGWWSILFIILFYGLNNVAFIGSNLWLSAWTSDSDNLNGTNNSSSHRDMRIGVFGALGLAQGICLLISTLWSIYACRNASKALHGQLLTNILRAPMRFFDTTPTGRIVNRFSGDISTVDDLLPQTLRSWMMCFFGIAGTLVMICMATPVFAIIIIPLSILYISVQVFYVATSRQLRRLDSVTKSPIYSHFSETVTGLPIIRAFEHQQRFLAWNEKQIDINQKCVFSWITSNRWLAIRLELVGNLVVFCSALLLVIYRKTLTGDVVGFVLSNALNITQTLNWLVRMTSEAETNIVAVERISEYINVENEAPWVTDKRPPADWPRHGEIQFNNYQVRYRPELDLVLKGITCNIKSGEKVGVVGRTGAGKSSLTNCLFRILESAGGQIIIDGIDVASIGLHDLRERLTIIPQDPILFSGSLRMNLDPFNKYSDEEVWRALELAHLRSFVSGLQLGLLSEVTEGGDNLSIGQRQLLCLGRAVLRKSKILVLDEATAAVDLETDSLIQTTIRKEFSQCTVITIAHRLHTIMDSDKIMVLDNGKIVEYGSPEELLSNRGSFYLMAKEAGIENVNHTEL

On to `CCCCCCCCCCCCCC(=O)OC(CCCCCCCCCCC)CC(=O)OC1C(NC(=O)CC(CCCCCCCCCCC)OC(=O)CCCCCCCCCCC)C(OC2CC(OC(=O)CC(O)CCCCCCCCCCC)C(NC(=O)CC(O)CCCCCCCCCCC)C(O)O2)OC(CO)C1OP(=O)(O)O` (stereo not drawn), for which the Activity entry in data set [1] was “inducer [Decrease]”; in data set [2] it was “inducer [Decrease]”; in data set [3], “inducer [+]”; in data set [4], “inducer [Decrease]”; in data set [5], “inducer [+]”; in data set [6] it was “inducer [Decrease]”. For the same molecule, the Activity entry in data set [7] is “inducer [+]”; in data set [8] it was “inducer [Decrease]”.

For the origin of these results see ChEMBL document CHEMBL2074103, “Up-regulation of the multidrug resistance genes, Mrp1 and Mdr1b, and down-regulation of the organic anion transporter, Mrp2, and the bile salt transporter, Spgp, in endotoxemic rat liver” (Hepatology, 1998).
